# Test results published in publication PMC6399220, “Engineered XylE as a tool for mechanistic investigation and ligand discovery of the glucose transporters GLUTs” (Cell Discovery, 2019).
# Legend:
# Type in all cases: binding
# [1] = target: T1, XylE-WW (xylose:proton symporter XylE) (Escherichia coli, UniProt P0AGF4, G58W/L315W); assay: MST
# [2] = target: T2, XylE (WT, xylose:proton symporter) (Escherichia coli, UniProt P0AGF4); assay: MST
# T2 sequence (P0AGF4 1-491): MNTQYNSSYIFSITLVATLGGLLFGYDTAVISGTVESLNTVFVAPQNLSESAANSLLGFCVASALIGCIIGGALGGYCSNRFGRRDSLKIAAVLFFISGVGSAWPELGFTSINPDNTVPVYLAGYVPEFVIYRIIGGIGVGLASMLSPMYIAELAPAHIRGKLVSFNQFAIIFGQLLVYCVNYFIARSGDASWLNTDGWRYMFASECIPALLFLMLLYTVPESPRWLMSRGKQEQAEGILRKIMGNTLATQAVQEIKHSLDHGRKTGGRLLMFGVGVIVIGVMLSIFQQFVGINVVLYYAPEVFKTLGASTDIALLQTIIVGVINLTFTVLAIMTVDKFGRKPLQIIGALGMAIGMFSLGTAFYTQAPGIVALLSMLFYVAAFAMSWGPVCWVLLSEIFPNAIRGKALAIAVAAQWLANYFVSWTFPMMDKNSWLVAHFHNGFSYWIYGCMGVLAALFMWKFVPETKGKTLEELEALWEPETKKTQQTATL
# [3] = target: T1, XylE-WW (xylose:proton symporter XylE); assay: MST and ITC
# [4] = target: T2, XylE (WT, xylose:proton symporter); assay: ITC (MST almost identical)
Compound,Kd [1] [µM],Kd [2] [µM],Kd [3] [µM],Kd [4] [µM]
OC[C@H]1OC(O)[C@H](O)[C@@H](O)[C@@H]1O (stereo partly drawn) [D-glucose],27.5 ± 0.5,2080 ± 95.7,–,–
OC1OC[C@@H](O)[C@H](O)[C@H]1O (stereo partly drawn) [D-xylose],–,–,14.4 ± 0.2,843 ± 8
